Assay results: patent US9428465B2, “Acid ceramidase inhibitors and their use as medicaments” (FONDAZIONE ISTITUTO ITALIANO DI TECHNOLOGIA, priority 2012, dated 2016)
pIC50: −log10 of the molar value.

Assays:
SW403 cells = test: SW403 cell viability, MTT assay; type: cell-based, human; conditions: sub-chronic treatment 72 hrs; compounds 30 μM, 5FU 300 nM
Experimental: Cells were seeded in 12- or 96-well plates in complete medium 24 hrs before treatment and then incubated for 24 hrs (single treatment) or 72 hrs (multiple treatments) with different drug concentrations in media without serum. Cell viability was then evaluated.
Alternatively, cell viability was assessed measuring mitochondrial functionality by the MIT assay, which is based on the reduction of the soluble tetrazolium salt MTT [(3-(4,5-dimethylthiazol-2-yl)-2,5-diphenyltetrazolium bromide] into insoluble formazan by mitochondria. Briefly, after treatment, cells were washed with PBS and incubated with 0.5 mg/ml, MTT for 2 hrs at room temperature, MTT reduction was quantified by absorbance at 570 nm using a UV-visible plate reader.

[1] = target: rat acid ceramidase (rAC) (Rattus norvegicus (Rat), UniProt Q6P7S1); test: Rat acid ceramidase (rAC) enzymatic assay, LC/MS of lauric acid; type: biochemical; conditions: for pIC50: rat acid ceramidase, 100 μM N-lauroyl ceramide, pH 4.5
Chain of rat acid ceramidase (rAC) (Q6P7S1 142-394): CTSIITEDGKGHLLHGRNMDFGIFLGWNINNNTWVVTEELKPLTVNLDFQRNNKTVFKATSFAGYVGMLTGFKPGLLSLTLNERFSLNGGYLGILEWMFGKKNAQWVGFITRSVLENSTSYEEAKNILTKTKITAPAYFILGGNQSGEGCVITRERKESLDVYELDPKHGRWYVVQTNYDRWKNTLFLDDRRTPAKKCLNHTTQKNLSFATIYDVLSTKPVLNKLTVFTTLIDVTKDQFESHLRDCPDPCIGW
Chain of rat acid ceramidase (rAC) (Q6P7S1 21-141): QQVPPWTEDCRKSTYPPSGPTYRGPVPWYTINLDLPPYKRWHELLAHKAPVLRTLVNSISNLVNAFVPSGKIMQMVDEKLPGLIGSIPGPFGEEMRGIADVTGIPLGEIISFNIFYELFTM
Experimental: A lysosomal rat acid ceramidase (rAC) protein preparation was obtained from cells stably expressing rAC resuspended in 20 mM Tris HCl (pH 7.5) with 0.32 M sucrose. Samples were sonicated and centrifuged at 800×g for 15 min at 4° C. Supernatants were then centrifuged at 12,000×g for 30 min at 4° C. Pellets were re-suspended in PBS pH 7.4 and subjected to 2 freeze-thaw cycles at −80° C. The suspension was finally centrifuged at 105,000×g for 1 hr at 4° C. and the supernatant containing rAC was then used in the enzymatic assay.
r-AC protein samples were pre-incubated with various concentrations of test compounds or vehicle control in 100 mM NaH2PO4/citrate buffer pH 4.5, 0.1% Nonidet P-40, 3 mM DTT for 30 min at 37° C. Samples were incubated with 100 μM N-lauroyl ceramide (Nu-Chek Prep, Elysian, Minn.) at 37° for 30 min. The reaction was stopped by addition of a mixture of chloroform/methanol (2:1 vol/vol) containing 1 nmol of heptadecanoic acid (HDA; NuChek Prep). The organic phases were collected, dried under nitrogen, and analyzed by LC/MS in the negative-ion mode using heptadecanoic acid (HDA) as internal standard (m/z=199 for lauric acid, m/z=269 for HDA). HDA was eluted on an XDB Eclipse C18 column isocratically at 2.2 mL/min for 1 min with a solvent mixture of 95% methanol and 5% water, both containing 0.25% acetic acid, and 5 mM ammonium acetate. The column temperature was 50° C. Electrospray ionization (ESI) was in the negative mode, capillary voltage was 4 kV, and fragmentor voltage was 100 V. Nitrogen was used as drying gas at a flow rate of 13 L/min and at a temperature of 350° C. Nebulizer pressure was set at 60 psi. We monitored [M-H]− in the selected-ion monitoring (SIM) mode using HDA as internal standard.
Inhibition of rAC activity was calculated as a reduction of lauric acid in the samples compared to vehicle controls. Median inhibitory concentration (IC50) values were calculated by non-linear regression analysis of log [concentration]/inhibition curves using. GraphPad Prism 5 (GraphPad Software, Inc., CA, USA) applying a standard slope curve fitting.

[2] = target: human acid ceramidase (hAC) (Homo sapiens (Human), UniProt Q13510); test: Human acid ceramidase (hAC) activity assay, UPLC/MS of lauric acid; type: biochemical; conditions: for pIC50: human acid ceramidase, 50 μM N-lauroyl ceramide, pH 4.5
Chain of human acid ceramidase (hAC) (Q13510 143-395): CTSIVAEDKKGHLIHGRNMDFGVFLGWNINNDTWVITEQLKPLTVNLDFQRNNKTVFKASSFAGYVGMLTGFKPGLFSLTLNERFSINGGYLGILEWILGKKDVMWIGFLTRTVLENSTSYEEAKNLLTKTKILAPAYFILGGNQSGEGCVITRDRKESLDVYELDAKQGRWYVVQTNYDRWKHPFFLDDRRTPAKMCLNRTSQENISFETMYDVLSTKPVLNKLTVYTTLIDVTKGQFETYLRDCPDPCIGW
Chain of human acid ceramidase (hAC) (Q13510 22-142): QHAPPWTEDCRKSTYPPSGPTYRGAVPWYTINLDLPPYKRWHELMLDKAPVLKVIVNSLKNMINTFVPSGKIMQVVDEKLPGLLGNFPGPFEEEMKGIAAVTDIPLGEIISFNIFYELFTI
Experimental: Human acid ceramidase (hAC) cDNA was purchased from Open Biosystem (clone ID 3923451) and subcloned in the mammalian expression vector pCDNA3.1, containing the neomycin resistance gene. The cell line HEK293 was transfected with hAC-pCDNA3.1 construct using JetPEI reagent (Polypus Transfection™, Illkirch, FR) following the manufacturer instructions. A stable cell line of hAC-overexpressing HEK293 was generated by selection with G418 (1 mg/ml) and cell clones were derived by limited dilution plating. hAC-expressing clones were analyzed by western blot.
Hek293 cells overexpressing hAC were suspended in 20 mM Tris HCl (pH 7.5) containing 0.32M sucrose, sonicated and centrifuged at 800×g for 15 min at 4° C. The supernatants were centrifuged again at 12,000×g for 30 min at 4° C. The pellets were suspended in phosphate-buffered saline (PBS) and subjected to 2 freeze-thaw cycles at −80° C. The suspensions were centrifuged at 105,000×g for 1 h at 4° C. The supernatants containing hAC were kept at −80° C. until use. Protein concentration was measured using the bicinchoninic acid (BCA) assay (Pierce).
A hAC protein preparation (10 μg) was preincubated with inhibitors (final DMSO concentration 1%) in assay buffer (100 mM sodium phosphate, 0.1% Nonidet P-40, 150 mM NaCl, 3 mM DTT, 100 mM sodium citrate, pH 4.5) for 30 min at 37° C. Reactions were started by the addition of 50 μM N-lauroyl ceramide (Nu-Chek Prep, Elysian, Minn.) and carried on for 30 min at 37° C. Reactions were stopped by addition of a mixture of chloroform/methanol (2:1, vol/vol) containing 1 nmol 11-lauroleic acid (NuChek Prep). The organic phases were collected, dried under nitrogen and analyzed by UPLC/MS (Acquity, Waters) in the negative-ion mode monitoring the reaction product (lauric acid, m/z=199) using 11-lauroleic acid as internal standard.
Lipids were eluted on an Acquity UPLC BEH C18 column (50 mm length, 2.1 mm i.d., 1.7 μm pore size, Waters) column at 0.5 mL-min^−1 for 1.5 min with a gradient of acetonitrile (CH3CN) and water, both containing 0.25% acetic acid and 5 mM ammonium acetate (70% to 100% CH3CN in 0.5 min, 100% CH3CN for 0.5 min, 70% CH3CN for 0.4 min). The column temperature was 40° C. Electrospray ionization (ESI) was in the negative mode, capillary voltage was 1 kV and cone voltage was 50 V. Nitrogen was used as drying gas at a flow rate of 500 L/h and at a temperature of 400° C.
The [M-H]^− ion was monitored in the selected-ion monitoring mode (m/z values: lauric acid 199, 11-lauroleic acid […]). Calibration curves were generated with authentic lauric acid (Nu Check Prep). Inhibition of acid ceramidase activity was calculated as reduction of lauric acid in the samples compared to vehicle controls. IC50 values were calculated by non-linear regression analysis of log [concentration]/inhibition curves using GraphPad Prism 5 (GraphPad Software Inc., CA, USA) applying a standard slope curve fitting.

[3] = read-out: hAC percent inhibition

O=c1[nH]cc(F)c(=O)[nH]1 [5-fluorouracil, reference compound]
SW403 cell viability (MTT assay) (SW403 cells): reduced cell viability

O=C(NCCCCc1ccccc1)n1ccc(=O)[nH]c1=O [Example 1, 2,4-dioxo-N-(4-phenylbutyl)pyrimidine-1-carboxamide]
inhibition at 0.3 µM ([1]; at 0.3 μM, read-out: rAC percent inhibition): 65%

CCCCCCNC(=O)n1cc(Cl)c(=O)[nH]c1=O [Example 3, 5-Chloro-N-hexyl-2,4-dioxo-pyrimidine-1-carboxamide]
pIC50 [1]: 7.17

CCCCCCNC(=O)n1cc(CO)c(=O)[nH]c1=O [Example 7, N-hexyl-5-(hydroxymethyl)-2,4-dioxo-pyrimidine-1-carboxamide]
pIC50 [1]: 6.38

CCCCCCNC(=O)n1cc(I)c(=O)[nH]c1=O [Example 8, N-hexyl-5-iodo-2,4-dioxo-pyrimidine-1-carboxamide]
pIC50 [1]: 6.83

CCCCCCNC(=O)n1cc(OC)c(=O)[nH]c1=O [Example 9, N-hexyl-5-methoxy-2,4-dioxo-pyrimidine-1-carboxamide]
pIC50 [1]: 5.96

CCCCCCNC(=O)n1cc(N(C)Cc2ccccc2)c(=O)[nH]c1=O [Example 10, 5-(benzyl(methyl)amino)-N-hexyl-2,4-dioxo-pyrimidine-1-carboxamide]
pIC50 [1]: 5.26

CCCCCCNC(=O)n1cc(NC)c(=O)[nH]c1=O [Example 11, N-hexyl-5-methylamino-2,4-dioxo-pyrimidine-1-carboxamide]
pIC50 [1]: 5.47

CCCCCCNC(=O)n1cc(N2CCOCC2)c(=O)[nH]c1=O [Example 12, N-hexyl-5-morpholino-2,4-dioxo-pyrimidine-1-carboxamide]
pIC50 [1]: 6.06

CCCCCCNC(=O)n1cc(N2CCN(C)CC2)c(=O)[nH]c1=O [Example 13, N-hexyl-5-(4-methylpiperazin-1-yl)-2,4-dioxo-pyrimidine-1-carboxamide]
pIC50 [1]: 5.85

CCCCCCNC(=O)n1cc(-c2ccccc2)c(=O)[nH]c1=O [Example 14, N-hexyl-2,4-dioxo-5-phenyl-pyrimidine-1-carboxamide]
pIC50 [2]: 6.81

CCCCCCNC(=O)n1cc(C)c(=O)n(CC2CC2)c1=O [Example 16, 3-(cyclopropylmethyl)-N-hexyl-5-methyl-2,4-dioxo-pyrimidine-1-carboxamide]
pIC50 [1]: 7.40

CCCCCCNC(=O)n1cc(-c2ccc(F)cc2)c(=O)[nH]c1=O [Example 18, 5-(4-fluorophenyl)-N-hexyl-2,4-dioxo-pyrimidine-1-carboxamide]
inhibition at 1 µM [2, 3]: 74%

CCCCCCNC(=O)n1cc(-c2ccc(OC)cc2)c(=O)[nH]c1=O [Example 19, N-hexyl-5-(4-methoxyphenyl)-2,4-dioxo-pyrimidine-1-carboxamide]
inhibition at 1 µM [2, 3]: 52%

CCCCCCNC(=O)n1cc(-c2ccc(C)cc2)c(=O)[nH]c1=O [Example 20, N-hexyl-2,4-dioxo-5-(p-tolyl)pyrimidine-1-carboxamide]
inhibition at 1 µM [2, 3]: 54%

CCCCCCNC(=O)n1cc(-c2ccc(C(F)(F)F)cc2)c(=O)[nH]c1=O [Example 21, N-hexyl-2,4-dioxo-5-[4-(trifluoromethyl)phenyl]pyrimidine-1-carboxamide]
inhibition at 1 µM [2, 3]: 86%

CCCCCCNC(=O)n1cc(-c2ccc3ccccc3c2)c(=O)[nH]c1=O [Example 22, N-Hexyl-5-(2-naphthyl)-2,4-dioxo-pyrimidine-1-carboxamide]
inhibition at 1 µM [2, 3]: 64%

CCCCCCNC(=O)n1cc(Br)c(=O)n(C(=O)OC)c1=O [Example 23, Methyl 5-bromo-3-(hexylcarbamoyl)-2,6-dioxo-pyrimidine-1-carboxylate]
pIC50 [2]: 6.57

CCCCCCNC(=O)n1cc(Br)c(=O)n(C(=O)OCC(C)C)c1=O [Example 24, Isobutyl 5-bromo-3-(hexylcarbamoyl)-2,6-dioxo-pyrimidine-1-carboxylate]
pIC50 [2]: 7.85

CCCCCCNC(=O)n1cc(Br)c(=O)n(C)c1=O [Example 25, 5-Bromo-N-hexyl-3-methyl-2,4-dioxo-pyrimidine-1-carboxamide]
inhibition at 1 µM [2, 3]: 96%

CCCCCCNC(=O)n1cc(-c2ccccc2)c(=O)n(C(=O)OCC(C)C)c1=O [Example 26, Isobutyl 3-(hexylcarbamoyl)-2,6-dioxo-5-phenyl-pyrimidine-1-carboxylate]
inhibition at 1 µM [2, 3]: 100%

CCCCCCNC(=O)n1cc(Cl)c(=O)n(C(=O)OCC(C)C)c1=O [Example 30, Isobutyl 5-chloro-3-(hexylcarbamoyl)-2,6-dioxo-pyrimidine-1-carboxylate]
inhibition at 1 µM [2, 3]: 100%

CCCCCCNC(=O)n1cc(-c2cccnc2)c(=O)[nH]c1=O [Example 31, N-hexyl-2,4-dioxo-5-(3-pyridyl)pyrimidine-1-carboxamide]
inhibition at 1 µM [2, 3]: 99%

CCCCCCCCNC(=O)n1cc(C(F)(F)F)c(=O)[nH]c1=O [Example 32, N-octyl-2,4-dioxo-5-(trifluoromethyl)pyrimidine-1-carboxamide]
pIC50 [1]: 8.15

O=C(NCCCCCc1ccccc1)n1ccc(=O)[nH]c1=O [Example 33, 2,4-dioxo-N-(5-phenylpentyl)pyrimidine-1-carboxamide]
inhibition at 1 µM [2, 3]: 100%

O=C(NCCCCCc1ccc(F)cc1)n1ccc(=O)[nH]c1=O [Example 34, N-[5-(4-fluorophenyl)pentyl]-2,4-dioxo-pyrimidine-1-carboxamide]
inhibition at 0.5 µM ([2]; at 0.5 μM, read-out: hAC percent inhibition): 99%
